The subject of experiment [1] is human wild type p21 promoter. Briefly: p21 promoter assay (luciferase) in MFLL-9 cells. The format is cell-based. To be noted: 20 hours, concentration giving 1000% luminescence relative to negative control (100%). Here is the method:
As an HDAC-inhibiting activity in an […] system, the following measurement was carried out using the p21 promoter inducing activity as an index. MFLL-9 cells used in the experiment are cells stably retaining a fusion gene (Dr. B. Vogelstaein) from the human wild type p21 promoter and luciferase gene. They were cultured using phenol red-free DMEM supplemented with 10% FBS in a steam-saturated incubator at 37° C. in the presence of 5% carbon dioxide. These MFLL-9 cells were sowed onto a 96-well microplate at a cell density of 2×10^4 cells/well and, after 24 hours of cultivation in 99 μl, per well, of the medium mentioned above, each test compound solution was added, followed by 20 hours of incubation. […] In a negative control, the same procedure was carried out without adding any inhibitor to the reaction system.
Using Luciferase Assay Reagent (Promega), the intensity of the luminescence due to the product of the enzymatic reaction involving luciferase expressed within cells was measured.

The target in another experiment is T1, human HDAC4 (Homo sapiens, UniProt P56524).
T1 construct: made in house; host or cells: 293T cells (transient transfection, anti-FLAG immunoprecipitation, FLAG peptide elution)
T1 sequence (P56524 whole entry): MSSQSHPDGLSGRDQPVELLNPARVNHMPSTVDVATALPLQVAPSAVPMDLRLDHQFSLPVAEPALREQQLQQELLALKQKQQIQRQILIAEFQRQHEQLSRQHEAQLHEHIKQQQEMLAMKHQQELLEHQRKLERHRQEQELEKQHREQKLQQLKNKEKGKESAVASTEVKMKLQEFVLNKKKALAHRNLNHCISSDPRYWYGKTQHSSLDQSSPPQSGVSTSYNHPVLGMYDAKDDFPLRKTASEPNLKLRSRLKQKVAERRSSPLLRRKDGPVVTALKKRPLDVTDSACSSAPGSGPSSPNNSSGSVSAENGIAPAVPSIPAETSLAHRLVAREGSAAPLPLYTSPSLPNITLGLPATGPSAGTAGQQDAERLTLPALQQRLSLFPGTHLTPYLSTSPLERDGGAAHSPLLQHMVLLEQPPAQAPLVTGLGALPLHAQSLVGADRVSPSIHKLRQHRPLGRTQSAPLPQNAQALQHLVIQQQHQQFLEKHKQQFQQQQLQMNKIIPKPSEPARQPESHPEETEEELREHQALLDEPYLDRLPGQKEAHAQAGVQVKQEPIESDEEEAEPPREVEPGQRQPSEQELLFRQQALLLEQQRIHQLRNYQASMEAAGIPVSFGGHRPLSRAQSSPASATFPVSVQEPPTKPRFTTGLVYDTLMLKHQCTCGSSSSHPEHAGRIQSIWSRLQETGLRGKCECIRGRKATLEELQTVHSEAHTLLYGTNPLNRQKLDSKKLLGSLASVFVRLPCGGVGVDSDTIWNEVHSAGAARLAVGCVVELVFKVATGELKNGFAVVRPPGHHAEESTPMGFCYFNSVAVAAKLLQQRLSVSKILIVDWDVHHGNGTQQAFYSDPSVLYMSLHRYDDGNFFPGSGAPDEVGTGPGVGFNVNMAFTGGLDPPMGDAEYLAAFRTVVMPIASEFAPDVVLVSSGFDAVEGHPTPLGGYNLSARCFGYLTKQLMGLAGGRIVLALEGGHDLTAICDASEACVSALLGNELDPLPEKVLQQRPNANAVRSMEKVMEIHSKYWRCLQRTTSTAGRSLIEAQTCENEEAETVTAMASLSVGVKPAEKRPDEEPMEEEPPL
T1 sequence (O15379 whole entry, further chain): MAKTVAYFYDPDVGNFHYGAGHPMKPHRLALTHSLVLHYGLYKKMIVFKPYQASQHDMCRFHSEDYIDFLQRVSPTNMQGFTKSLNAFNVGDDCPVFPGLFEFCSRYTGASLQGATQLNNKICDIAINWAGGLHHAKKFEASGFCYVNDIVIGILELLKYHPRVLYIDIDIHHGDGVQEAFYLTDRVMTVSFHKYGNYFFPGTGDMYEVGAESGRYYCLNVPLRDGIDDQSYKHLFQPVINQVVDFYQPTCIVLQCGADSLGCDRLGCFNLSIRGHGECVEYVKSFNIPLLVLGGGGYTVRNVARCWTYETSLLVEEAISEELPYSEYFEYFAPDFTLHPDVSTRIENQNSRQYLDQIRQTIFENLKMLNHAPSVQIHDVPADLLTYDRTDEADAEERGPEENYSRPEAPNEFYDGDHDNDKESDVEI
The experiment can be described thus: HDAC-inhibiting activity, coumarin-labeled acetylated histone peptide assay. To be noted: human HDAC4 from transfected 293T cells; 37° C., 30 minutes; read-out: HDAC-inhibiting activity IC50 HDAC4. The experiment is classed as biochemical. As to the method:
In carrying out HDAC-inhibiting activity measurements, HDAC solutions were prepared in the following manner. […] The human HDAC1 expression vector used was pcDNA3-HD1 (Yang, W. M., Yao, Y. L., Sun, […]. & Seto, E. (1997) J. Biol. Chem. 272, 28001-28007), the human HDAC4 expression vector used was pcDNA3-HD4 ([…]., Nagase, […]. Biol. Chem. 274, 11713-11720), and the murine HDAC6 expression vector used was pcDNA3-mHDA2/HDAC6 ([…]. Biol. Chem. 274, 2440-2445). After 24 hours of incubation, cells were recovered, washed with PBS, suspended in lysis buffer (50 mM Tris-HCl (pH 7.5), 120 mM NaCl, 5 mM EDTA, 0.5% Nonidet P-40), and sonicated. The supernatant was collected by centrifugation and then deprived of nonspecific proteins using Protein A/G plus agarose beads (Santa Cruz Biotechnologies, Inc.). Thereafter, anti-FLAG M2 antibody (Sigma-Aldrich Inc.) was added, and the reaction was allowed to proceed at 4° C. for 2 hours. To this were added agarose beads, the reaction was allowed to proceed at 4° C. for 3 hours, and the agarose beads were washed three times with lysis buffer and then once with HD buffer (20 mM Tris-HCl (pH 8.0), 150 mM NaCl, 10% glycerol). […] HDAC-inhibiting activity evaluation in each in vitro system was made as follows. Each test compound was dissolved in DMSO, a stock solution with a concentration of 10 mM was thus prepared and this was used as an inhibitor stock solution. The assay was carried out by incubating the HDAC solution and a coumarin-labeled acetylated histone peptide solution in the presence of the test compound at 37° C. for 30 minutes (reaction volume 20 μl). To the reaction mixture was added 30 μl of trypsin, and the aminomethylcoumarin released by the enzymatic reaction was assayed using a fluorescent plate reader. In a negative control assay, no inhibitor was added to the reaction system and the same procedure was carried out.

The target of the next experiment is T2, human HDAC1 (Homo sapiens, UniProt Q13547).
T2 construct: made in house; host or cells: 293T cells (transient transfection, anti-FLAG immunoprecipitation, FLAG peptide elution)
T2 sequence (Q13547 whole entry): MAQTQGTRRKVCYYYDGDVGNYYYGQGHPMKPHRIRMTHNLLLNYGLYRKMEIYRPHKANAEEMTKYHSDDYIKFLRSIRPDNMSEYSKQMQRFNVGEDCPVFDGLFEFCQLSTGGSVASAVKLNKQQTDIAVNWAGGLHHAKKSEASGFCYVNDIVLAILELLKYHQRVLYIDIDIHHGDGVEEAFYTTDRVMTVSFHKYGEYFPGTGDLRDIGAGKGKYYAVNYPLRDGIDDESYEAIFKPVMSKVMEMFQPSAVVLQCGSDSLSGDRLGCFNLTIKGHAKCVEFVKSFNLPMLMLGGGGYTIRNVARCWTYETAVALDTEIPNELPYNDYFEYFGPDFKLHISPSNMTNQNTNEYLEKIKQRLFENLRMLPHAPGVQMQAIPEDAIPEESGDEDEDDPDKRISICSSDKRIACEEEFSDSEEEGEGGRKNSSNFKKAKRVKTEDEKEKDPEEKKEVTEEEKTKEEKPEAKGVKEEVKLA
The description is as above. To be noted: human HDAC1 from transfected 293T cells; 37° C., 30 minutes. The experiment is classed as biochemical. Here is the method: (§1) In carrying out HDAC-inhibiting activity measurements, HDAC solutions were prepared in the following manner. In each 100-mm dish, there were sowed 1×10^7 293T cells and, after 24 hours, they were transfected with a vector (5 μg) expressing human HDAC1 or HDAC4 or murine HDAC6 using the LipofectAmine 2000 reagent (Invitrogen). The human HDAC1 expression vector used was pcDNA3-HD1 (Yang, W. M., Yao, Y. L., Sun, J. M., Davie, J. R. & Seto, E. (1997) J. Biol. Chem. 272, 28001-28007), the human HDAC4 expression vector used was pcDNA3-HD4 (Fischle, W., Emiliani, S., Hendzel, M. J., Nagase, T., Nomura, N., Voelter, W. & Verdin, E. (1999) J. Biol. Chem. 274, 11713-11720), and the murine HDAC6 expression vector used was pcDNA3-mHDA2/HDAC6 (Verdel, A. & Khochbin, S. (1999) J. Biol. Chem. 274, 2440-2445).
(§2) After 24 hours of incubation, cells were recovered, washed with PBS, suspended in lysis buffer (50 mM Tris-HCl (pH 7.5), 120 mM NaCl, 5 mM EDTA, 0.5% Nonidet P-40), and sonicated. The supernatant was collected by centrifugation and then deprived of nonspecific proteins using Protein A/G plus agarose beads (Santa Cruz Biotechnologies, Inc.). Thereafter, anti-FLAG M2 antibody (Sigma-Aldrich Inc.) was added, and the reaction was allowed to proceed at 4° C. for 2 hours.
(§3) To this were added agarose beads, the reaction was allowed to proceed at 4° C. for 3 hours, and the agarose beads were washed three times with lysis buffer and then once with HD buffer (20 mM Tris-HCl (pH 8.0), 150 mM NaCl, 10% glycerol). The protein bound to the agarose beads was recovered by 1 hour of incubation with FLAG peptide (40 μg) (Sigma-Aldrich Inc.) in HD buffer (200 μl) at 4° C., and the liquid recovered was used, as a reactant solution, in the HDAC-inhibiting activity measurement described below.
(§4) HDAC-inhibiting activity evaluation in each in vitro system was made as follows. Each test compound was dissolved in DMSO, a stock solution with a concentration of 10 mM was thus prepared and this was used as an inhibitor stock solution. The assay was carried out by incubating the HDAC solution and a coumarin-labeled acetylated histone peptide solution in the presence of the test compound at 37° C. for 30 minutes (reaction volume 20 μl). To the reaction mixture was added 30 μl of trypsin, and the aminomethylcoumarin released by the enzymatic reaction was assayed using a fluorescent plate reader. In a negative control assay, no inhibitor was added to the reaction system and the same procedure was carried out.

For the next experiment, the target named is T3, murine HDAC6 (Mus musculus, UniProt Q9Z2V5).
T3 construct: made in house; host or cells: 293T cells (transient transfection, anti-FLAG immunoprecipitation, FLAG peptide elution)
T3 sequence (Q9Z2V5 1-1149): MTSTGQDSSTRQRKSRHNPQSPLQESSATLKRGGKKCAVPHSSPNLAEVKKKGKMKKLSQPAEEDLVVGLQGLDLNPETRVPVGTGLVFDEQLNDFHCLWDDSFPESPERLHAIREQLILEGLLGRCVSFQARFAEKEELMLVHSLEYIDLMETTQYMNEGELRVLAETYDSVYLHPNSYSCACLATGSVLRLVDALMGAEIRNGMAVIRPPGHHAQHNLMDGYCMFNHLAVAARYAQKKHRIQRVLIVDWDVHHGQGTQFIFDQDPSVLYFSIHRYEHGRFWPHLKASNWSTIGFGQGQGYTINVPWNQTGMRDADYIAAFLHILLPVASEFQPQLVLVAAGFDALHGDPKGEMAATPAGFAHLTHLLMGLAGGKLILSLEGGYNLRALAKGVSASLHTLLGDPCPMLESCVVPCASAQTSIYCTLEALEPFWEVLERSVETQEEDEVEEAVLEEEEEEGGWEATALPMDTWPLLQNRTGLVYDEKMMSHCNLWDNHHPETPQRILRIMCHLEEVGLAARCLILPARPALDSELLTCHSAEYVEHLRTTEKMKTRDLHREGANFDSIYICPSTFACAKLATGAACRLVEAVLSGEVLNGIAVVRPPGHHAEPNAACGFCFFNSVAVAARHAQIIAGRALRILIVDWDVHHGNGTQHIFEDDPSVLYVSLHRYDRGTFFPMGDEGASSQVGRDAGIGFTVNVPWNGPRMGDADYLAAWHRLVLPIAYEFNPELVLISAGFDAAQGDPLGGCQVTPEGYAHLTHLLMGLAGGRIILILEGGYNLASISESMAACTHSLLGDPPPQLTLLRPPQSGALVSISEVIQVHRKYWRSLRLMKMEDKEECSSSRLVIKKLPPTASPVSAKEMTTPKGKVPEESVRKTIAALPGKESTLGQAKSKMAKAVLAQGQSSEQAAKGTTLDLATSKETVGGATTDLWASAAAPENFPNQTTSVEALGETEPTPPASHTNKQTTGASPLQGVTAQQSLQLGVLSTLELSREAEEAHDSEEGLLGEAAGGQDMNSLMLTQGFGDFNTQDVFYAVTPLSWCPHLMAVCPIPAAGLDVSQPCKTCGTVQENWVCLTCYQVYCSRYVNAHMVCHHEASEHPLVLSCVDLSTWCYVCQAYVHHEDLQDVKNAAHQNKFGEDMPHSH
Described as above. The format is biochemical. The following applies: murine HDAC6 from transfected 293T cells; 37° C., 30 minutes. Here is the method:
as §1, §2, §3, §4

Each structure is given as a SMILES string. A value given as a limit tells only on which side of the number the result lay.

The record followed here is patent publication US8158587B2, “Compound having histone deacetylase-inhibiting activity, and pharmaceutical composition comprising the compound as an active ingredient” (Kyushu Institute of Technology, priority 2006, dated 2012).

Consider `CC1(C)NC(=O)[C@H](CCCCSCC(=O)C(F)(F)F)NC(=O)[C@H]2CCCN2C(=O)[C@H](Cc2ccccc2)NC1=O` [Ky-28, cyclo(-L-Am6(1,1,1-trifluoroacetonyl)-Aib-L-Phe-D-Pro-)], for which the “p21 promoter activity EC1000” value in experiment [1] is 6.5 µM. The IC50 is 18.4 µM on human HDAC4, 83 µM on human HDAC1 and more than 100 µM at murine HDAC6.

With `CC1(C)NC(=O)[C@H](CCCCCC(=O)COCC(F)(F)F)NC(=O)[C@H]2CCCN2C(=O)[C@H](Cc2ccccc2)NC1=O` [Ky-60, cyclo(-L-Ae9(Tfemk)-Aib-L-Phe-D-Pro-)], the “p21 promoter activity EC1000” value in experiment [1] worked out at 0.85 µM. Moreover, the values for the concentration for half-maximal inhibition (IC50) on human HDAC4, against human HDAC1 and against murine HDAC6 were 0.46 µM, 0.37 µM and more than 100 µM, respectively.

Regarding `CC1(C)NC(=O)[C@H](CCCCCSCc2cccnc2)NC(=O)[C@H]2CCCN2C(=O)[C@H](Cc2ccccc2)NC1=O` [Ky-68, cyclo(-L-Am7(3-pyridylmethyl)-Aib-L-Phe-D-Pro-)], the “p21 promoter activity EC1000” value in experiment [1] came out at 0.20 µM. Moreover, the IC50 at human HDAC4 is 0.33 µM; against human HDAC1 it was 0.4 µM; at murine HDAC6 it was 3.7 µM.

For `CC1(C)NC(=O)[C@H](CCCCCSCc2ccccc2)NC(=O)[C@H]2CCCN2C(=O)[C@H](Cc2ccccc2)NC1=O` [Ky-69, cyclo(-L-Am7(benzyl)-Aib-L-Phe-D-Pro-)], in experiment [1], the “p21 promoter activity EC1000” value was determined as 0.041 µM. Moreover, the IC50 at human HDAC4 was 0.0065 µM; against human HDAC1 it was 0.011 µM; on murine HDAC6 it was 0.12 µM.

In the case of `CC1(C)NC(=O)[C@H](CCCCC[S+]([O-])CC(=O)C(F)(F)F)NC(=O)[C@H]2CCCN2C(=O)[C@H](Cc2ccccc2)NC1=O` (stereo partly drawn) [Ky-71, cyclo(-L-Am7(1,1,1-trifluoroacetonyl, sulfoxide)-Aib-L-Phe-D-Pro-)], in experiment [1], the “p21 promoter activity EC1000” value was determined as 3.4 µM. The IC50 at human HDAC4, on human HDAC1 and on murine HDAC6 was more than 100 µM in each case.

As for `CC1(C)NC(=O)[C@H](CCCCCCSCC(=O)C(F)(F)F)NC(=O)[C@H]2CCCN2C(=O)[C@H](Cc2ccccc2)NC1=O` [Ky-73, cyclo(-L-Am8(1,1,1-trifluoroacetonyl)-Aib-L-Phe-D-Pro-)], the “p21 promoter activity EC1000” value in experiment [1] turned out to be 3.7 µM. Besides, the values for the IC50 at human HDAC4, on human HDAC1 and at murine HDAC6 were 0.46 µM, 1.1 µM and 26.4 µM, respectively.

For the molecule `CC(=O)COCCCCC[C@@H]1NC(=O)[C@H]2CCCN2C(=O)[C@H](Cc2ccccc2)NC(=O)C(C)(C)NC1=O` [Ky-74, cyclo(-L-Ah7(acetonyl)-Aib-L-Phe-D-Pro-)], in experiment [1], the “p21 promoter activity EC1000” value was more than 250 µM. In addition, the IC50 at human HDAC4, on human HDAC1 and on murine HDAC6 was more than 100 µM throughout.

Turning to `COCC(=O)CSCCCCC[C@@H]1NC(=O)[C@H]2CCCN2C(=O)[C@H](Cc2ccccc2)NC(=O)C(C)(C)NC1=O` [Ky-85, cyclo(-L-Am7(methoxyacetonyl)-Aib-L-Phe-D-Pro-)], in experiment [1], the “p21 promoter activity EC1000” value stood at 0.48 µM. The IC50 on human HDAC4 amounted to 0.077 µM; against human HDAC1 it was 0.13 µM; on murine HDAC6, 1.2 µM.
